Experimental data published in PubChem BioAssay AID540252 (Sanford-Burnham Center for Chemical Genomics, 2011).
The source made the active and inactive calls. The rule behind the calls is not given here.

molecular target: glucose-6-phosphate dehydrogenase-6-phosphogluconolactonase (Plasmodium falciparum 3D7); test: inhibition of P. falciparum G6PD activity – biochemical, end-point NADPH detection, orthogonal assay, dose response (AID 540252); conditions: purified PfG6PD enzyme, NADPH direct detection

Structure (SMILES) | IC50
COc1ccc(NC2CCCN(Cc3cccc4cnccc34)C2)cc1OC (centres undefined) | > 80 µM (inactive)
Cc1cc(C(=O)O)ccc1-n1c(C)cc(C=C2C(=O)c3ccccc3C2=O)c1C | > 80 µM (inactive)
CCCN1CCc2cc(O)cc3c2[C@H]1Cc1ccc(O)c(O)c1-3 | > 80 µM (inactive)
C#CCCc1cscc1/C=[N+](\[O-])c1ccc(C(=O)OCC)cc1 | > 80 µM (inactive)
Cc1ccc(N2CC(C(=O)OCC(=O)c3ccc([N+](=O)[O-])cc3)CC2=O)cc1 (centres undefined) | 50.9 µM
COc1ccc(-n2c(=S)[nH]c3c(sc(=S)n3-c3ccccc3)c2=O)c(OC)c1 | 58 µM
COc1c(O)c(O)c2oc(-c3ccccc3)cc(=O)c2c1OC | > 80 µM (inactive)
C(=N\Nc1nc2ccccc2[nH]1)/c1ccccn1 | > 80 µM (inactive)
Cc1ccc(/C=C/C(=O)N2CCN(S(=O)(=O)c3ccc(C)c(C)c3)CC2)o1 | > 80 µM (inactive)
CS(=O)(=O)c1ccc(N)c(SSc2cc(S(C)(=O)=O)ccc2N)c1 | 17.6 µM
COCc1cc(=O)n2[nH]c(C(C)(C)C)cc2n1 | > 80 µM (inactive)
COc1cc(O)c(C(=O)O)c(-c2cc(O)c(O)cc2C)c1 | > 80 µM (inactive)
CCN(CC)c1ccc(C(=C2C=CC(=[N+](CC)CC)C=C2)c2ccc(N(CC)CC)cc2)cc1 | 39.6 µM
CCC(=O)OCOc1ccc(/C=C2/CCC(CN(C)C)C2=O)cc1 (centres undefined) | > 80 µM (inactive)
C=CCc1ccccc1OCC(=O)N/N=C/c1ccccc1OCC | > 80 µM (inactive)
CN(C)c1ccc(C=c2c3cc([N+](=O)[O-])ccc3n3c2cc(-c2ccccc2)[n+]3C)cc1 | 33.2 µM
Cc1ccc(NC(=O)c2cc(N3C(=O)C=CC3=O)ccc2Cl)cc1C | 49.2 µM
Cn1sc2ccccc2c1=O | 52.3 µM
O=C(NCCCN1CCOCC1)c1sc2cc([N+](=O)[O-])ccc2c1Cl | 49.2 µM
[O-]/[N+](=C\c1ccco1)c1ccc(Cl)cc1 | > 80 µM (inactive)
O=C(CCc1ccc(S(=O)(=O)N2CCOCC2)cc1)N/N=C/c1ccc(O)c(O)c1O | > 80 µM (inactive)
Oc1ccc(NCc2ccccc2OCc2ccccc2)cc1 | > 80 µM (inactive)
CCOC(=O)c1c(OCC)[nH]c2c1cc(O)c1ccccc12 | > 80 µM (inactive)
O=C(CNC(=O)c1cccs1)OCC(=O)c1ccc([N+](=O)[O-])cc1 | 62.5 µM
CCOC(=O)c1ccc(-n2c(N)c(C(=O)NCC3CCCO3)sc2=S)cc1 (centres undefined) | > 80 µM (inactive)
Cc1cc(C)c2c(=O)n(CC(=O)N3CCC(N4CCCCC4)CC3)sc2n1 | > 80 µM (inactive)

Structure (SMILES) | IC50
C[C@]12CC[C@@H]3c4ccc(O)c(O)c4CC[C@H]3[C@@H]1CC[C@@H]2O | 22.3 µM
CC1=CC(=NOC(=O)/C=C/c2ccccc2)C=C(C)C1=O | > 80 µM (inactive)
Cc1ccc2nc(SCC(=O)NC3CCCc4ccccc43)[nH]c2c1 (centres undefined) | > 80 µM (inactive)
COc1cc(N)c2ncsc2c1 | > 80 µM (inactive)
O=[N+]([O-])c1ccc(-[n+]2ccc3ccccc3c2)c([N+](=O)[O-])c1 | > 80 µM (inactive)
O=C(Nc1nc(-c2ccncc2)cs1)C1COc2ccccc2O1 (centres undefined) | > 80 µM (inactive)
Cc1no[n+]([O-])c1COc1cccc(/C=N/Nc2nncn2N)c1 | > 80 µM (inactive)
Cc1ccsc1/C=N/NC(=O)c1cccc(S(=O)(=O)Nc2ccccc2Cl)c1 | > 80 µM (inactive)
Cc1ccc(S(=O)(=O)SCCCSS(=O)(=O)c2ccc(C)cc2)cc1 | 38.8 µM
S=c1ncc2[nH]c(=S)[nH]c2[nH]1 | 60.5 µM
CN1CCN(C(=S)c2ccc(Br)cc2)CC1 | > 80 µM (inactive)
COC(=O)CCC(=O)OC1(C)C(=O)C2=CN(C3CC3)C(c3ccc(OC)cc3)=CC2=C(Br)C1=O (centres undefined) | > 80 µM (inactive)
CC1=CC(C)(C)Nc2ccc(OC(=O)CN3C(=O)CCC3=O)cc21 | > 80 µM (inactive)
NC1CCc2cc(O)c(O)cc2C1 (centres undefined) | 27.5 µM
O=[N+]([O-])c1ccc(N/N=C/c2ccc(O)c(O)c2O)c(S(=O)(=O)N2CCOCC2)c1 | 47.5 µM
C/C(Cn1nnc([N+](=O)[O-])n1)=N\NC(=O)c1ccccc1O | > 80 µM (inactive)
CC1COCC(C)N1C1=C(Cl)C(=O)c2ccccc2C1=O (centres undefined) | > 80 µM (inactive)
O=C(COc1ccccc1F)OCC(=O)c1ccc([N+](=O)[O-])cc1 | 44.6 µM
Cc1ccc(-c2c(C(=O)N/N=C/c3ccsc3)nnn2-c2nonc2N)cc1 | > 80 µM (inactive)
OCCN1CCN(C(=S)c2ccc(Cl)c(Cl)c2)CC1 | > 80 µM (inactive)
CC1N(C)c2cccc3cccc(c23)N1C | > 80 µM (inactive)
Cc1ccc(NC(=O)c2ccc(Cl)c(N3C(=O)C=CC3=O)c2)cc1 | 33.4 µM
CCCN1CCc2cccc3c2[C@H]1Cc1ccc(O)c(O)c1-3 | > 80 µM (inactive)
CCOc1ccc(CNc2ccc(N3CCCC3)cc2)cc1 | > 80 µM (inactive)
Cc1cc(C)nc(NC(N)=NCCc2ccccc2)n1 | > 80 µM (inactive)
O=C1C=C(NCCc2cc(Br)c(O)c(Br)c2)C(=O)c2ncccc21 | > 80 µM (inactive)

Structure (SMILES) | IC50
Clc1cccc(Cl)c1CNc1ccc(N2CCCC2)cc1 | > 80 µM (inactive)
CCOc1ccccc1NS(=O)(=O)c1c(C)noc1C | > 80 µM (inactive)
COc1ccc(/C=C/c2nc3ccccc3n2Cc2ccc(OC)c(OC)c2)cc1 | > 80 µM (inactive)
O=C(O)c1cc(N2C(=O)C=CC2=O)cc(N2C(=O)C=CC2=O)c1 | 18.9 µM
CC(=O)Nc1ccc2c(=O)n(-c3ccccc3)sc2c1 | 13.8 µM
O=c1[nH]c(NCCO)c(N=Cc2ccccc2)c(=O)[nH]1 | > 80 µM (inactive)
COc1cccc(C2(c3cccc(OC)c3)CC2C(=O)Nc2ccc(F)cc2)c1 (centres undefined) | > 80 µM (inactive)
O=S(c1ccccc1O)S(=O)c1ccccc1O (centres undefined) | > 80 µM (inactive)
COc1cc(C(=O)ON=C2C=C(C)C(=O)C(C)=C2)cc(OC)c1OC | > 80 µM (inactive)
COC1=C(N)C(=O)c2nc(C)ccc2C1=O | > 80 µM (inactive)
CC(C)Sc1nnc(NC(=O)c2ccc3c(c2)OCO3)s1 | > 80 µM (inactive)
CCN1/C(=C/C=C/C=C/C=C/c2sc3ccccc3[n+]2CC)Sc2ccccc21 | > 80 µM (inactive)
COc1cc(NCCCn2cnc3c(OCc4ccccc4)ncnc32)cc(OC)c1OC | > 80 µM (inactive)
Cc1cc(C)c(S(=O)(=O)Nc2cc(SCC(=O)O)c(O)c3ccccc23)cc1C | > 80 µM (inactive)
Cc1ccccc1-n1c(-c2ccc3ccccc3n2)n[nH]c1=S | > 80 µM (inactive)
COc1cccc(CNc2ccc3[nH]c(=O)[nH]c3c2)c1OCc1ccc(F)cc1 | > 80 µM (inactive)
CCCCC1C(=O)N(c2ccccc2)N(c2ccc(O)cc2)C1=O (centres undefined) | > 80 µM (inactive)
C[C@H](NC(=O)c1cc2c(cn1)[nH]c1ccccc12)C(=O)O | > 80 µM (inactive)
C=CCOc1c(Cl)cc(CNc2ccc3[nH]c(=O)[nH]c3c2)cc1OC | > 80 µM (inactive)
COc1ccc(C(=O)/C=C2\Sc3ccccc3N2C)cc1 | > 80 µM (inactive)
O=C(CCl)NCCN1C(=O)S/C(=C\c2cccnc2)C1=O | > 80 µM (inactive)
O=C(O)CSc1cc(NS(=O)(=O)c2ccc(Cl)cc2)c2ccccc2c1O | > 80 µM (inactive)
Cc1cccc(OCC(=O)NCC(=O)N/N=C/c2ccccc2)c1 | > 80 µM (inactive)
O=C(Cn1sc2ccccc2c1=O)NC12CC3CC(CC(C3)C1)C2 | 15.1 µM
COC(=O)C1=C(C(=O)OC)SC2(S1)C(C(=O)OC)=C(C(=O)OC)Sc1c2ssc1=O | > 80 µM (inactive)
C[c-]1[c-](C)[c-](C)[c-](C)[c-]1C.[Fe].c1cc2nccc(N3CCCC3)[c-]2c1 (centres undefined) | > 80 µM (inactive)

Structure (SMILES) | IC50
CCC1(CC)Cc2ccccc2C(N)=C1C#N | > 80 µM (inactive)
CCOC(=O)Cc1csc(-n2sc3ccccc3c2=O)n1 | > 80 µM (inactive)
CCOC(=O)c1sc(NC(=O)CSc2nnc(Cc3ccccc3)o2)c(C#N)c1C | > 80 µM (inactive)
O=c1c2ccccc2sn1-c1ccccc1 | 7.9 µM
Cc1ccc(-c2nc(N)s[n+]2-c2ccccc2)cc1 | 60.3 µM
Cc1ccc(C(=O)NCC(=O)NCC(=O)OCC(=O)c2ccc([N+](=O)[O-])cc2)cc1 | 48.4 µM
Cc1ccc2nc(-c3ccc(NC(=S)NC4CC(C)(C)NC(C)(C)C4)cc3)sc2c1 | > 80 µM (inactive)
Cc1ccc(Nc2cc(C)c(O)c(C)c2)cc1 | > 80 µM (inactive)
O=c1c2ccccc2sn1-c1cc(S(=O)(=O)N2CCOCC2)ccc1N1CCCC1 | 15.1 µM
COc1cc(SSc2cc(OC)cc([N+](=O)[O-])c2N)c(N)c([N+](=O)[O-])c1 | 13.1 µM
C=CCN1CCc2cccc3c2[C@H]1Cc1ccc(O)c(O)c1-3 | > 80 µM (inactive)
COc1cc(C(=O)O/N=C2/C=C(C)C(=O)C=C2C)cc(OC)c1OC | > 80 µM (inactive)
CC1(C)CC2(CC(c3ccccc3F)c3ccc(O)c(O)c3O2)NC(=S)N1 (centres undefined) | 32.1 µM
O=C(Cn1sc2ccccc2c1=O)Nc1ccc(Cl)cc1 | 15.2 µM
Cc1ccnc(-n2sc3ccccc3c2=O)n1 | > 80 µM (inactive)
CCc1c(C(=O)Nc2ccccc2)c(C)[nH]c(=S)c1C#N | > 80 µM (inactive)
O=C(Cn1sc2ccccc2c1=O)Nc1ccc(Br)cc1 | 22.4 µM
COC1(OC)C=CC(=O)C=C1NC(=O)c1ccccc1OC(C)=O | > 80 µM (inactive)
O=C(CSc1nc2cc(Cl)ccc2s1)c1ccco1 | > 80 µM (inactive)
Cc1ccc(NC(=O)c2cc(C)n(-c3ccccc3)c2C)cc1 | > 80 µM (inactive)
CC(C)(C)c1ccc(C(=O)Nc2sc3c(c2C(=O)O)CCC3)cc1 | > 80 µM (inactive)
O=[N+]([O-])c1ccc2c(c1)-c1ccccc1C2O (centres undefined) | 23.8 µM
COCCn1nnnc1C(c1cc2cc(OC)c(OC)cc2[nH]c1=O)N1CCN(c2ccc(O)cc2)CC1 (centres undefined) | > 80 µM (inactive)
COc1cc(NC(C)CCc2ccccc2)cc(OC)c1OC (centres undefined) | > 80 µM (inactive)
CCOC(=O)c1cnc2ccc(C)cc2c1Sc1ccccc1C(=O)OC | > 80 µM (inactive)
O=[N+]([O-])c1ccc(Sc2cccc3cccnc23)c2cccnc12 | > 80 µM (inactive)
